# Laboratory results as given in US8114882B2, “(1H-indol-7-yl)-(pyrimidin-2-ylamino)methanone derivatives and related compounds as IGF-R1 inhibitors for the treatment of cancer” (Merck Patent GmbH, priority 2005, dated 2012).
# Biological target: T1, IGF-1R (Homo sapiens, UniProt P08069)
# T1 construct: Cultivated human tumour cells which express the IGF1 receptor (IGF1R); endogenous in cells
# Test: Inhibition of IGF-1R (IC50): IGF1-stimulated IGF1R autophosphorylation in human tumour cells, Capture-ELISA or LUMINEX
# Format: cell-based
# Conditions: Table 1; human tumour cells expressing IGF1R (for example MCF-7 or Calu-6), 45 min pre-treatment, 5 min IGF1 stimulation
# Protocol: Cultivated human tumour cells which express the IGF1 receptor (IGF1R) (for example MCF-7 or Calu-6) are stimulated using human IGF1, the natural ligand of IGF1R. The stimulation induces autophosphorylation of tyrosine residues in the cytoplasmatic IGF1R domain, which triggers signal transduction cascades, which result in apoptosis inhibition and cell proliferation.
# The amount of phosphorylated IGF1R is determined by a receptor-specific Capture-ELISA or an analogous LUMINEX assay. The IGF1R from cell lysates is bound to a 96-well ELISA plate or LUMINEX beads (“capturing”) by means of a specific antibody, and the tyrosine phosphorylation is detected using a biotin-labelled anti-phosphotyrosine antibody and a streptavidin peroxidase conjugate by a chemoluminescence method or by means of a fluorescence-labelled anti-phosphotyrosine antibody.
# In order to determine the activity of kinase inhibitors, cells are pre-treated with increasing concentrations of these compounds for 45 min and subsequently stimulated using IGF1 for 5 min. As internal control, the biological activity of the ligand IGF1 is checked and a concentration series of an IGF1R reference inhibitor measured.
# T1 sequence (P08069 31-1367): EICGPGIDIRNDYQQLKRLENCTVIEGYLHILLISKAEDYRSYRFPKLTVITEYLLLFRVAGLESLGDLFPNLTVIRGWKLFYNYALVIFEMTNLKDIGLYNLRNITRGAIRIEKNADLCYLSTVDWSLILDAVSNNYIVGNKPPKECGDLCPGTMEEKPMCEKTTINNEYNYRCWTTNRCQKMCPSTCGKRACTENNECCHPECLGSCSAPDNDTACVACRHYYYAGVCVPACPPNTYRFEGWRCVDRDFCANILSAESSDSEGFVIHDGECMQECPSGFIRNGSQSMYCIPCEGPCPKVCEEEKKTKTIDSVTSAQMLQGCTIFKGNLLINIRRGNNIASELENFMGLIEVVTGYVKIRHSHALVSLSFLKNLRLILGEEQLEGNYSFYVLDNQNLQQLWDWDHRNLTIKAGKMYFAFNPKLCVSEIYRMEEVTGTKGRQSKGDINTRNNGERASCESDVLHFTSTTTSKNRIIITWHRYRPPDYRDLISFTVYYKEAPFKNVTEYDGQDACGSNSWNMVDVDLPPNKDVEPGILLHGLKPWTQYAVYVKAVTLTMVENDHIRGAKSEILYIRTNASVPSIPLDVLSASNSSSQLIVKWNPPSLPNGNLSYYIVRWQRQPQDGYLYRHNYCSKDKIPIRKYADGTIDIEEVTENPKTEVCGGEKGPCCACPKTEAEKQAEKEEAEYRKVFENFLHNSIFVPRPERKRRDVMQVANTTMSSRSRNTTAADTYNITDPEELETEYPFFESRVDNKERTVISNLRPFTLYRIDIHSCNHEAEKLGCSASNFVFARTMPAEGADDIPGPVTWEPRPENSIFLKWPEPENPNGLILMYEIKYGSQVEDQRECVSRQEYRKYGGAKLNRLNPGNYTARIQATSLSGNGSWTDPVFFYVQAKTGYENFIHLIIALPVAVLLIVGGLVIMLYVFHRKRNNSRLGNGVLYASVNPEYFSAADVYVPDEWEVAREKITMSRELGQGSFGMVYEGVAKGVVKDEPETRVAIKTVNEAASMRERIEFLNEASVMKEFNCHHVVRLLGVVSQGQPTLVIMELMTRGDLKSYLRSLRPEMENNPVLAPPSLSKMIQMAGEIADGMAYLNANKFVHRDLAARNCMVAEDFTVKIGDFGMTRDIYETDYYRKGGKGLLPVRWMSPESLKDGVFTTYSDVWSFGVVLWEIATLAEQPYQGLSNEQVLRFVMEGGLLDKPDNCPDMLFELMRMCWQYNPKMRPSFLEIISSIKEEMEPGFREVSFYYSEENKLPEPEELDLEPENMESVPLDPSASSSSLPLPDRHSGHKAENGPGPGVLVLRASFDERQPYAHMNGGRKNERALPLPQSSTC
row,Compound,IC50
1,COc1cc(Nc2nccc(Nc3ccc(C(=O)c4cccc5cc[nH]c45)cc3)n2)cc(OC)c1OC,2200 nM
2,O=C(c1ccc(Nc2ccnc(Nc3cc(-c4ccccc4)[nH]n3)n2)cc1)c1cccc2cc[nH]c12,10000 nM
3,O=C(c1ccc(Nc2ccnc(Nc3ncc[nH]3)n2)cc1)c1cccc2cc[nH]c12,150 nM
4,O=C(c1ccc(Nc2ccnc(Cl)n2)cc1)c1cccc2c1NCC2,7850 nM
5,O=C(c1ccc(Nc2ccnc(Nc3ccc(C(=O)c4cccc5cc[nH]c45)cc3)n2)cc1)c1cccc2cc[nH]c12,1800 nM
6,O=C(c1ccc(Nc2ccnc(Cl)n2)cc1)c1cccc2cc[nH]c12,2600 nM
7,O=C(c1ccc(Nc2nccc(NCc3cccnc3)n2)cc1)c1cccc2c1NCC2,2400 nM
8,O=C(c1ccc(Nc2ccnc(Nc3cc[nH]n3)n2)cc1)c1cccc2cc[nH]c12,2400 nM
9,Cc1cc(Nc2nccc(Nc3ccc(C(=O)c4cccc5cc[nH]c45)cc3)n2)n[nH]1,2900 nM
10,O=C(c1c[nH]nc1Nc1nccc(Nc2cnc3ccccc3c2)n1)c1cccc2cc[nH]c12,630 nM
11,N#CCCNc1nccc(Nc2ccc(C(=O)c3cccc4cc[nH]c34)cc2)n1,3100 nM
12,O=C(c1ccc(Nc2ccnc(NCC3CC(O)C3)n2)cc1)c1cccc2cc[nH]c12 (stereo not drawn),1200 nM
13,O=C(c1ccc(Nc2ccnc(Nc3cc(-c4ccco4)[nH]n3)n2)cc1)c1cccc2cc[nH]c12,15000 nM
14,CC(C)(C)c1cc(Nc2nccc(Nc3ccc(C(=O)c4cccc5cc[nH]c45)cc3)n2)n[nH]1,12000 nM
15,N#Cc1c[nH]c2c(C(=O)c3ccc(Nc4ccnc(Nc5ccc(C(=O)c6cccc7c(C#N)c[nH]c67)cc5)n4)cc3)cccc12,490 nM
